Measurements from patent US8318664B2, “Unacylated ghrelin fragments as therapeutic agent in the treatment of obesity” (Alize Pharma SAS, priority 2007, dated 2012).
Entries after “also recorded” stand apart in the source; their conditions may differ. Non-standard residues stand in square brackets, D forms with d. No end group written: not given here.

How the values were obtained:
hamster HIT-T15 β-cells = assay: MTT cell survival assay in HIT-T15 β-cells; format: cell-based
Description: MTT experiments were also performed in hamster HIT-T15 β-cells, to test the survival effect of UAG (1-28) or its fragments UAG (1-14), UAG (1-18), UAG (1-5) and UAG (17-28) in serum deprived medium, either alone or with IFN-γ/TNF-α/IL-1β. As for the experiments performed on INS-1E β-cells, the peptides were tested at increasing concentrations, ranging from 0.1 nM to 100 nM.
The survival effect of UAG (6-13), UAG (8-13), UAG (8-12), UAG (8-11), UAG (9-12) and UAG (9-11) was assessed in cytokine-treated HIT-T15 β-cells.
The protective effects of peptides UAG (8-13) and UAG (8-12) were found similar to those of UAG (1-14) and UAG (1-18). A peptide made of the inverse sequence of UAG (1-14) and named UAG (14-1), was used as negative control for these experiments (FIG. 5A). […] These effects were however lower than those of UAG (6-13) (FIG. 5B).
UAG fragments with alanine (Ala) substitutions at different amino acid positions (6 to 13) were tested with regards to their survival effects in HIT-T15 hamster β-cells. The cells were cultured in serum deprived medium, either alone or with IFN-γ/TNF-α/IL-1β. The peptides were tested at the concentrations of 1 nM to 100 nM. […] Under treatment with cytokines, where cell survival was reduced by ≈18% with respect to serum starved conditions, all Ala substitutions, except those at positions 10 and 11, completely reversed cell death and brought the survival rate to levels that were even higher than those under serum-free conditions, at both 1 nM and 100 nM concentrations. These effects were similar to those elicited by the original peptide UAG (6-13) (FIG. 11B).
Particularly, the best effect was exerted by Gly 6-UAG (6-13), whereas the lowest was seen using AcSer 6-UAG (6-13), AcSer 6-(D)Pro 7-UAG (6-13) (FIG. 12B).
(§1) Hamster HIT-T15 insulin-secreting β-cells were obtained and cultured as described (Refs. 14, 4). INS-1E rat β-cells were kindly provided by Prof. Claes B. Wollheim (University Medical Center, Geneva, Switzerland) and cultured as described (Refs. 14, 4). Cell culture reagents were from Invitrogen (Milano, Italy). Cytokines were from Biosource (Invitrogen, Italy).
(§2) Cell survival was assessed by 3-[4,5-dimethylthiazol-2-yl]-2,5diphenyltetrazolium bromide (MTT) as described previously (Ref. 4). Cells were seeded on 96-well plates at a density of 5×10^3 cells/well. After treatments, cells were incubated with 1 mg/ml MTT for ≈1 h. The medium was aspirated, and the formazan product solubilized with 100 μl DMSO. Viability was assessed by spectrophotometry at 570 nm absorbance using a 96-well plate reader.

[1] = system: C57BL/6J male mice on high fat diet; assay: High fat diet (HFD) pre-diabetic/onset obesity model in C57BL/6J mice; format: in vivo, mouse
Description: In order to assess the effects of UAG and cyclic UAG (6-13) on the metabolic responses to a high fat diet, ten (10) week old C57BL/6J male mice were allowed to acclimatize in the animal facility for 1 week. The mice were fed a standard chow (also referred herein as “normal diet” or “ND”, 9% kcal fat) and were maintained in 12 hour:12 hour light:dark conditions at 21° C. (FIG. 17).
At 11 weeks, the mice were separated into 2 different streams (n=10): the first stream consisted in 4 weeks of normal diet and the second stream consisted in 2 weeks of normal diet followed by 2 weeks of high fat diet (also referred herein as “HFD”, 41% kcal fat) with Intraperitoneal Glucose Tolerance Testing (IPGTT) (also referred herein as “IPGTT”) and Intraperitoneal Insuline Tolerance Testing (also referred herein as “IPITT”). Baseline 24 h food intake and IPGTTs were run before pump implantation (FIG. 17).
Alzet 1004 micro-osmotic pumps containing saline, UAG or cyclic UAG (6-13) were implanted at week 0 of the procedure depicted in FIG. 17 in the mice of the two streams (sc., interscapular) under isoflurane anesthesia and peri-operative carprofen analgesia (5 mg/kg sc.). UAG or cyclic UAG (6-13) peptides were infused at 4 nmol/kg/hr.
Body weight and 24 h food intake were measured weekly for 4 weeks and IPGTTs were performed bi-weekly for 4 weeks. […] The suppression in body weight gain observed in peptide-treated mice can therefore not be explained by a reduced food intake.
GTTs were performed following a 6 h fast starting at 8 am, then ˜100 μl of blood was collected from the tail vein (t=0) for measurement of insulin under fasting conditions (no anesthesia). Mice were injected ip. with 2 g/kg glucose in saline solution. Glucose was then measured using a glucometer using ˜0.5 μl of tail vein blood at t=0, 15, 30, 45, 60 and 120 minutes. During the GTT at wk 4 samples of ˜25 μl of tail vein blood were also collected at 15, 30 and 120 minutes for insulin determination.
The day after the final IPGTT, mice were fasted for 4 h starting at 8 am, then injected with human insulin (Actrapid, Novo Nordisk) at 0.5 IU/kg. Glucose in tail vein blood (˜0.5 μl) was measured with a glucometer at t=0, 15, 30, 45, 60 and 120 minutes (no anesthesia).
Tail vein blood glucose was measured by glucometer biweekly from free-fed mice in the non-IPGTT experimental streams (no anesthesia).

HIT-T15 β-cells = assay: Cytokine-induced apoptosis in HIT-T15 β-cells; format: cell-based, hamster; conditions: 24 h serum-free medium with IFN-γ/TNF-α/IL-1β, 1, 10, 100 nM
Description: HIT-T15 β-cells were cultured for 24 h in serum-free medium, either alone or with IFN-γ/TNF-α/IL-1β. In both cell lines, apoptosis increased under cytokine treatment, with respect to serum starvation alone. […] UAG (14-1), the inverse sequence of UAG (1-14), was used as negative control, whereas UAG (1-28), was used as positive control in each experiment.

[2] = system: UAG receptor on HIT-T15 pancreatic β-cells; assay: Competition with [125I-Tyr4]-UAG for binding sites on HIT-T15 membranes; set-up: species or system hamster
Description: (§3) The ability of the fragment UAG (6-13) to compete in a concentration-dependent manner with [^125I-Tyr^4]-UAG for HIT-T15 (FIG. 10A) and INS-1E (FIG. 10B) binding sites was assayed. As shown in FIGS. 10A and 10B, unlabelled UAG (1-28) and UAG (6-13) competed with a similar efficacy and in a concentration-dependent fashion with [^125I-Tyr^4]-UAG for such binding sites in both cell lines.
(§4) Membranes from hamster HIT-T15 and rat INS-1E pancreatic β-cells were prepared and assayed for the presence of [^125I-Tyr^4]-UAG binding. The ability of UAG fragments to compete with the radioligand for such binding sites has been evaluated as previously described (Ref. 4). Data are presented as mean±S.E.M. of three independent experiments.

[3] = system: UAG receptor on INS-1E pancreatic β-cells; assay: Competition with [125I-Tyr4]-UAG for binding sites on INS-1E membranes; set-up: species or system rat
Description: as §3, §4

human pancreatic islets = assay: MTT cell survival assay in human pancreatic islets; format: cell-based; conditions: human islet cells, 1 nM to 100 nM
Description: The survival effect of UAG (1-14), UAG (1-18), UAG (1-5) and UAG (17-28), with respect to that of full length UAG (1-28), was assessed in human pancreatic islets by MTT. The peptides were tested in islet cells cultured in serum deprived medium, either alone or with IFN-γ/TNF-α/IL-1β (5 ng/ml each).
Human islets were obtained from pancreases of multiorgan donors as described (Ref. 4). Islet preparations with purity >70%, not suitable for transplantation, were provided by European Consortium for Islet Transplantation (ECIT) “Islets for Research Distribution Program,” Transplant Unit, Scientific Institute San Raffaele, Vita-Salute University, Milan. Islets (10,000) were cultured in CMRL (Invitrogen) with 10% FBS.
as §2

INS-1E rat β-cells = assay: MTT cell survival assay in INS-1E β-cells; format: cell-based; conditions: 0.1 nM to 100 nM
Description: The peptides were tested at increasing concentrations, ranging from 0.1 nM to 100 nM.
as §1, §2

[4] = serum deprived medium with IFN-γ/TNF-α/IL-1β
[5] = serum deprived medium with IFN-γ/TNF-α/IL-1β (5 ng/ml each)

## Glu-His-Gln-Arg (EHQR; listed as Homo sapiens) [UAG (8-11)]
Hamster HIT-T15 β-cells; [4]
  cell survival (MTT): significant survival effect only at 100 nM

## Ser-Pro-Glu-His-Gln-Arg-Val-Gln (cyclic) (SPEHQRVQ; cyclic; (1)..(8) Cyclic; listed as Homo sapiens) [cyclic UAG (6-13)]
[1]; HFD, 4 nmol/kg/hr sc. infusion, compared to saline-HFD
  body weight gain: suppressed body weight gain
[1]; HFD, pre-diabetic, normoglycemic conditions
  glucose levels in fasting or fed state: does not significantly affect glucose levels
[1]; IPITT, HFD
  HFD-induced insulin resistance (insulin tolerance test, area above the glucose curve): restores insulin resistance to a level that is comparable to ND control
[1]; after 2 weeks on the HFD
  HFD-induced glucose intolerance (IPGTT): prevents glucose intolerance
[1]; at 4 weeks, HFD
  reduction of eWAT normalized for body weight: about 28%
  weight of epididymal white adipose tissue (eWAT): lower than that of the control mice fed on the HFD

## His-Gln-Arg [UAG (9-11)]
Hamster HIT-T15 β-cells; [4]
  cell survival (MTT): no significant effect at both concentrations tested

## Ac-Ser-Pro-Glu-His-Gln-Arg-Val-Gln-NH2 (Ac-SPEHQRVQ-NH2; listed as Homo sapiens) [AcSer 6-UAG (6-13)]
Hamster HIT-T15 β-cells; [4]
  cell survival (MTT): lowest

## Ac-Ser-pro-Glu-His-Gln-Arg-Val-Gln-NH2 (Ac-S[dP]EHQRVQ-NH2; listed as Homo sapiens) [AcSer 6-(D)Pro 7-UAG (6-13)]
Hamster HIT-T15 β-cells; [4]
  cell survival (MTT): lowest

## EHQRVQ [UAG (8-13)]
Hamster HIT-T15 β-cells; [4]
  cell survival (MTT): significant protective effect at all the concentrations examined; also recorded: strongly effective in increasing survival
HIT-T15 β-cells
  antiapoptotic effect (cytokine-induced apoptosis): significantly inhibited apoptosis at 10 and 100 nM; also recorded: strongest antiapoptotic effect

## Glu-His-Gln-Arg-Val (EHQRV; listed as Homo Sapiens) [UAG (8-12)]
Hamster HIT-T15 β-cells; [4]
  cell survival (MTT): strongly effective in increasing survival
HIT-T15 β-cells
  antiapoptotic effect (cytokine-induced apoptosis): some protective effect only at 100 nM; also recorded: strongest antiapoptotic effect

## His-Gln-Arg-Val (HQRV; listed as Homo sapiens) [UAG (9-12)]
Hamster HIT-T15 β-cells; [4]
  cell survival (MTT): significantly increased cell survival at both the concentrations tested

## Gly-Pro-Glu-His-Gln-Arg-Val-Gln-NH2 (GPEHQRVQ-NH2; listed as Homo sapiens) [Gly 6-UAG (6-13)]
Hamster HIT-T15 β-cells; [4]
  cell survival (MTT): best effect

## UAG (1-13): fragment named only in b101 as binding to the UAG receptor; possibly a misprint (GSSFLSPEHQRVQ)
[2]
  binding to the UAG receptor: recognized and bound
[3]
  binding to the UAG receptor: recognized and bound

## Gly-Ser-Ser-Phe-Leu (GSSFL; listed as Homo sapiens) [UAG (1-5)]
Human pancreatic islets; serum deprived medium alone
  cell survival (MTT): little, although significant survival action at 10 nM
Human pancreatic islets; [5]
  cell survival (MTT): no cell protection
INS-1E rat β-cells; serum deprived medium alone
  cell survival (MTT): reduced, although significant, survival action; also recorded: only a trivial effect
INS-1E rat β-cells; [4]
  cell survival (MTT): reduced effect; also recorded: only a trivial effect
Hamster HIT-T15 β-cells; serum deprived medium alone
  cell survival (MTT): very little effect
Hamster HIT-T15 β-cells; [4]
  cell survival (MTT): slightly increased cell survival; also recorded: very little effect

## ESKKPPAKLQPR [UAG (17-28)]
Human pancreatic islets; serum deprived medium alone
  cell survival (MTT): significantly increased survival of islet cells
Human pancreatic islets; [5]
  cell survival (MTT): had no effect
INS-1E rat β-cells; serum deprived medium alone
  cell survival (MTT): reduced, although significant, survival action; also recorded: only a trivial effect
INS-1E rat β-cells; [4]
  cell survival (MTT): reduced effect; also recorded: only a trivial effect
Hamster HIT-T15 β-cells; serum deprived medium alone
  cell survival (MTT): no significant effect; also recorded: very little effect
Hamster HIT-T15 β-cells; [4]
  cell survival (MTT): no significant effect; also recorded: very little effect
